What all share (assay type): cell-based
In assay [1] the test system is Bifidobacterium longum subsp. infantis. As to the kind of experiment: Minimum Inhibitory Concentration (MIC) assay. Particulars: anaerobic, 37° C., 18 h. The protocol: (§1) The bioactivity of macrolide compounds against 4 strains of common gut bacteria (Escherichia coli, Streptococcus salivarius subsp. salivarius, Lactobacillus casei and Bifidobacterium longum subsp. infantis) and common mammalian skin isolate Micrococcus luteus, was assessed using the Minimum Inhibitory Concentration (MIC) assay. Bacterial strains were purchased from DSMZ (Brunswick, Germany) except M. luteus which was obtained from NCIMB, and stored in 20% glycerol at −80° C. Stock solutions (100% DMSO) of positive controls (azithromycin and erythromycin), and of test compounds 1 and 2 were diluted in broth to working stock concentrations of 256 μg/ml (final assay testing concentration range 128 μg/ml to 0.00391 μg/ml). Stock solutions of all other compounds were diluted in broth to working stock concentrations of 128 μg/ml (final assay testing concentration range 64 μg/ml to 0.00195 μg/ml). Bacterial strains were cultivated in appropriate broth in an anaerobic chamber at 37° C., except for M. luteus which was incubated aerobically at 37° C. 18 h cultures were diluted in broth to an OD595 of 0.1 and then further diluted 1:10. In 96-well plates, in duplicate, 200 μl working stock of test compound was transferred to well 1 and serially diluted (1:2) in broth. 100 μl bacterial suspension was aliquoted into each well and mixed thoroughly. Appropriate sterility controls were included and plates were incubated in an anaerobic chamber, or aerobically (M. luteus) at 37° C. for 18 h. The MIC was determined to be the concentration of test compound in the first well with no visible growth.

For the next assay, the system named is Escherichia coli. As to the kind of experiment: Minimum Inhibitory Concentration (MIC) assay. As to conditions: anaerobic, 37° C., 18 h. On the procedure:
as §1

In a further assay the test system is Micrococcus luteus. In words: Minimum Inhibitory Concentration (MIC) assay. As to conditions: aerobic, 37° C., 18 h. The protocol: as §1
The test system of assay [2] is Streptococcus salivarius subsp. salivarius. In words: Minimum Inhibitory Concentration (MIC) assay. Particulars: anaerobic, 37° C., 18 h. The protocol: as §1
The test system of the next assay is Lactobacillus casei. As to the kind of experiment: Minimum Inhibitory Concentration (MIC) assay. As to conditions: Lacticaseibacillus casei; anaerobic, 37° C., 18 h. The protocol:
as §1

A further assay deals with T1, human TLR2 (Homo sapiens, UniProt O60603).
T1 construct: host or cells: recombinant HEK-293-TLR cell lines (hTLR2, NFkB-SEAP reporter)
In words: TLR2 reporter assay (HEK-293-TLR, SEAP). Particulars: for OD after addition of 5 μM test article / OD after addition of 10 μM test article / OD after addition of 20 μM test article: SEAP reporter optical density; for TLR2 stimulation: at concentrations up to 20 uM. On the procedure:
Samples and controls were tested in duplicate on recombinant HEK-293-TLR cell lines using a cell reporter assay at Invivogen using their standard assay conditions. These cell lines functionally over-express human TLR2 protein as well as a reporter gene which is a secreted alkaline phosphatase (SEAP). The production of this reporter gene is driven by an NFkB inducible promoter. The TLR reporter cell lines activation results are given as optical density values (OD). 20 μl of each test article were used to stimulate the hTLR2 reporter cell lines in a 200 μl of final reaction volume. Samples were tested in duplicate, with at least two concentrations tested—20 uM and 10 uM.
Compounds were tested using a TLR2 reporter assay (see general methods) that measured for stimulation of the TLR2 receptor. Stimulatory effect was measured as an increase in optical density (OD) due to release of secreted alkaline phosphatase (SEAP) and is shown in table 4: […]
(A reporter such as luciferase makes a cellular process visible.)

In assay [3] the test system is E. coli, S. salivarius, L. casei, B. longum or M. luteus. In words: Direct antibacterial activity, summary over all strains tested. As to conditions: against the bacterial strains tested (Table 1). The protocol:
as §1

In brackets after ≈: the same amount, converted by molar mass.

T1 sequence (O60603 21-784): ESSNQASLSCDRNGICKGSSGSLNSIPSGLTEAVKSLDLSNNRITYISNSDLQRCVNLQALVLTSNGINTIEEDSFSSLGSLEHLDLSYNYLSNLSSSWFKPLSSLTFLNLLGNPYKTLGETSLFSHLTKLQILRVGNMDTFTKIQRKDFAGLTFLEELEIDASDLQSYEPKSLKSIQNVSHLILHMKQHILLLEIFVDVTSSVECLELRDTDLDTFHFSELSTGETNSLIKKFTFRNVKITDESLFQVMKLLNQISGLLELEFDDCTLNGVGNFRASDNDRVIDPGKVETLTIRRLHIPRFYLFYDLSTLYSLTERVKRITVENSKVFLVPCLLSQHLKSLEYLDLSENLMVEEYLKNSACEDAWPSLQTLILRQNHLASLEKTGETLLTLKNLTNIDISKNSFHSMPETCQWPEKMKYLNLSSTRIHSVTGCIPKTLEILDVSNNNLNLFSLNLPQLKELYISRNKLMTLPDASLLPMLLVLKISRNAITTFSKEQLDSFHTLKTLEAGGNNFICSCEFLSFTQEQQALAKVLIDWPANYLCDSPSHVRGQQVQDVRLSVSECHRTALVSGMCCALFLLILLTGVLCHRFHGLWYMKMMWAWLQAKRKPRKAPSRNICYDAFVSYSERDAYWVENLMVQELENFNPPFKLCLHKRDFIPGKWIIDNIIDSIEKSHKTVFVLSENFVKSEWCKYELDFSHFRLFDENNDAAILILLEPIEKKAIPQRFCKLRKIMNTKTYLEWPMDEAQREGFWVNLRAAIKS

The term MIC denotes the lowest concentration found to suppress growth. In the case of `CC[C@H]1OC(=O)[C@H](C)[C@@H](O[C@H]2C[C@@](C)(OC)[C@@H](O)[C@H](C)O2)[C@H](C)[C@@H](O[C@@H]2O[C@H](C)C[C@H](N(C)C)[C@H]2O)[C@](C)(O)C[C@@H](C)CN(C)[C@H](C)[C@@H](O)[C@]1(C)O` [Azithromycin, reference compound], the MIC in assay [1] was over 64 µg/mL; against Escherichia coli, under 8 µg/mL; in the assay on Micrococcus luteus, 0.125 µg/mL (≈ 0.167 µM); in assay [2], under 0.5 µg/mL; in the assay with Lactobacillus casei, under 1 µg/mL. Moreover, the “OD after addition of 5 μM test article” value at human TLR2 stood at 0.029. On human TLR2, the “OD after addition of 10 μM test article” value is 0.045. Also, at human TLR2, the “OD after addition of 20 μM test article” value turned out to be 0.031. The TLR2 stimulation result at human TLR2 is given as “little or no stimulation”. The antibacterial activity result in assay [3] was “potent activity against a number of the strains”.

In the case of `CC[C@H]1OC(=O)[C@H](C)[C@@H](O[C@H]2CC(N(C)C)[C@H](O)C(C)O2)[C@H](C)[C@@H](O)[C@](C)(O)C[C@@H](C)C(=O)[C@H](C)[C@@H](O)[C@H]1C` (some centres unmarked) [Compound 3], at human TLR2, the “OD after addition of 5 μM test article” value is −0.043, the “OD after addition of 10 μM test article” value is on record as −0.015, the “OD after addition of 20 μM test article” value was −0.026 and the TLR2 stimulation entry is on record as “little or no stimulation”. Moreover, the antibacterial activity entry in assay [3] is listed as “no antibacterial activity”.

In the case of `CC[C@H]1OC(=O)[C@H](C)[C@@H](O[C@H]2CC(N(C)C)[C@H](O)C(C)O2)[C@H](C)[C@@H](O)[C@](C)(O)C[C@@H](C)CN(C)[C@H](C)[C@@H](O)[C@H]1C` (some centres unmarked) [Compound 4], the MIC (in assay [1]; in the assay on Escherichia coli; in assay [2]; with Lactobacillus casei) was over 64 µg/mL each time. The antibacterial activity result in assay [3] is “no antibacterial activity”.

As to `CC1O[C@@H](O[C@H]2[C@H](C)[C@@H](O)[C@](C)(O)C[C@@H](C)C(=O)[C@H](C)[C@@H](O)[C@@H](C)[C@@H](C3CCC3)OC(=O)[C@@H]2C)CC(N(C)C)[C@@H]1O` (some centres unmarked) [Compound 5], the MIC (in assay [1]; with Escherichia coli; in assay [2]; in the assay on Lactobacillus casei) was over 64 µg/mL throughout. For the same compound, the antibacterial activity entry in assay [3] is reported as “no antibacterial activity”.

Turning to `CC[C@H]1OC(=O)[C@H](C)[C@@H](O[C@H]2CC(NC)[C@H](O)C(C)O2)[C@H](C)[C@@H](O)[C@](C)(O)C[C@@H](C)C(=O)[C@H](C)[C@@H](O)[C@H]1C` (some centres unmarked) [Compound 6], the MIC (in assay [1]; in the assay on Escherichia coli; in assay [2]; in the assay with Lactobacillus casei) was over 64 µg/mL each time. The antibacterial activity result in assay [3] is reported as “no antibacterial activity”.

Take `CC[C@H]1OC(=O)[C@H](C)[C@@H](O[C@H]2CC(N(C)C)[C@H](O)C(C)O2)[C@H](C)[C@@H](O)[C@](C)(O)C[C@@H](C)C(O)[C@H](C)[C@@H](O)[C@H]1C` (some centres unmarked) [Compound 7]: the MIC (in assay [1]; against Escherichia coli; in assay [2]; with Lactobacillus casei) was over 64 µg/mL each time. Besides, the antibacterial activity result in assay [3] is given as “no antibacterial activity”.

In the case of `CC1O[C@@H](O[C@H]2[C@H](C)[C@@H](O)[C@](C)(O)C[C@@H](C)C(=O)[C@H](C)[C@@H](O)[C@@H](C)[C@@H](C)OC(=O)[C@@H]2C)CC(N(C)C)[C@@H]1O` (some centres unmarked) [Compound 8], the MIC (in assay [1]; against Escherichia coli; in assay [2]; with Lactobacillus casei) was over 64 µg/mL throughout. Also, in assay [3], the antibacterial activity entry was “no antibacterial activity”.

Take `CC(O)[C@H]1OC(=O)[C@H](C)[C@@H](O[C@H]2C[C@@H](N(C)C)[C@H](O)[C@@H](C)O2)[C@H](C)[C@@H](O)[C@](C)(O)C[C@@H](C)C(=O)[C@H](C)[C@@H](O)[C@H]1C` (some centres unmarked) [Compound 9, 14-hydroxy angolosamine erythronolide B]: the MIC (in assay [1]; against Escherichia coli; in assay [2]; against Lactobacillus casei) was over 64 µg/mL each time. In addition, the antibacterial activity entry in assay [3] is listed as “no antibacterial activity”.

As for `CC[C@H]1OC(=O)[C@H](C)[C@@H](O[C@H]2CC(N(C)C)[C@H](O)C(C)O2)[C@H](C)[C@@H](O)[C@](C)(O)C[C@@H](C)N(C)C[C@H](C)[C@@H](O)[C@]1(C)O` (some centres unmarked) [Compound 17], on human TLR2, the “OD after addition of 5 μM test article” value came to 0.054, the “OD after addition of 10 μM test article” value was found to be 0.155 and the “OD after addition of 20 μM test article” value stood at 0.234. Moreover, the “concentrations at which TLR2 was stimulated (down to)” value at human TLR2 (lowest stimulating concentration tested) is at least 10 µM.

`CC[C@H]1OC(=O)[C@H](C)[C@@H](O[C@H]2C[C@@](C)(OC)[C@@H](O)[C@H](C)O2)[C@H](C)[C@@H](O[C@@H]2O[C@H](C)C[C@H](N(C)C)[C@H]2O)[C@](C)(O)C[C@@H](C)C(=O)[C@H](C)[C@@H](O)[C@]1(C)O` [Erythromycin, reference compound]: the MIC in assay [1] is over 64 µg/mL; with Escherichia coli it was over 64 µg/mL; in the assay on Micrococcus luteus, under 0.0625 µg/mL; in assay [2] it was under 0.06 µg/mL; in the assay on Lactobacillus casei, under 0.25 µg/mL. On human TLR2, the “OD after addition of 5 μM test article” value stood at 0.035. For the same compound, the “OD after addition of 10 μM test article” value on human TLR2 is 0.065. In addition, the “OD after addition of 20 μM test article” value on human TLR2 was determined as 0.045. Moreover, the TLR2 stimulation result at human TLR2 is recorded as “little or no stimulation”. Besides, the antibacterial activity entry in assay [3] is on record as “potent activity against a number of the strains”.

The record behind these values is patent US11059845B2, “Immune stimulating macrolides” (ISR IMMUNE SYSTEM REGULATION HOLDING AB (PUBL), priority 2017, dated 2021).
